Read-outs that look alike come from different tables or passages of the source. Marks after values point to notes of the source that are not given here.

For orientation: ED50 means the dose that gives a 50% effect, or the effect in half of the subjects. As a reminder, the TD50 is the 50% point of the dose-response relation for the toxic effect studied.

The test system of series [1] is Maximal electroshock seizures (MES). Kind of series: Maximal electroshock seizure test (MES). In kind it is in vivo, mice. As to conditions: Mus musculus, read-out: MES ED50. On the procedure: (§1) in the eye prior to application of the electrodes so as to prevent the death of the animal. Protection in this test was defined as the abolition of the hind limb tonic extension component of the seizure. The Subcutaneous Pentylenetetrazole (Metrazol^R) Seizure Threshold Test (sc Met) entailed the administration of 85 mg/kg of pentylenetetrazole as a 0.5% solution subcutaneously in the posterior midline. […] Protection was defined as the failure to observe even a threshold seizure (a single episode of clonic spasms of at least 5 sec duration). The effects of the compounds on forced and spontaneous motor activity were evaluated in mice using the Rotorod Test (Tox) or, in some cases, as indicated herein, a horizontal screen assay (HS). The animal was placed on a one-inch diameter knurled plastic rod rotating at 6 rpm after the administration of the drug. Normal mice can remain on a rod rotating at this speed indefinitely. Neurologic toxicity was defined as the failure of the animal to remain on the rod for one minute. The MES and so Met Tests were conducted on single animals while four mice were utilized for the Tox Test. The dose effect behavior of the compounds was evaluated using the above-described procedures by the administration of varying dose levels, treating normally eight mice at each dose. Table I includes an evaluation of the Median Effective Dose (ED50) and the Median Toxic Dose (TD50) of representative compounds. Mice were tested with varying doses of the anticonvulsant to define the limits of complete protection (or toxicity) and no protection (or no toxicity), as well as three points in between these limits. The Median Effective Dose (ED50) was defined as the dose which produced the Pharmacology. […] N-Acetyl-D,L-alanine-N'-benzylamide was tested at […] as well. […] Maximal electroshock seizures (MES) were elicited with a 60 cycle alternating current of 50 mA intensity (5-7 times that necessary to elicit minimal electroschock seizures) delivered for 0.2 sec via corneal electrodes. A drop of 0.9% saline was instilled desired endpoint in 50% of the animals. The Median Toxicity Dose (TD50) was the dose which elicited evidence of minimal neurological toxicity in 50% of the animals.
(In general: The maximal electroshock test induces tonic seizures with an electrical stimulus.)

The next series concerns pentylenetetrazole. Kind of series: Subcutaneous Pentylenetetrazole (Metrazol) Seizure Threshold Test (sc Met). Type of series: in vivo, mice. As to conditions: for ED50: Mus musculus, sc, 0.5 h, read-out: sc Met ED50. On the procedure: as §1
The nature of series [2]: Horizontal screen assay (HS), neurologic toxicity. The settings on record: mouse; mice; Median Toxic Dose; evaluated using a horizontal screen assay (HS) as opposed to the Rotorod Test; read-out: Tox TD50. Type of series: in vivo. On the procedure:
as §1
The TD50 of D,L-α-acetamido-N-benzyl-3-thiopheneacetamide, D,L-α-acetamido-N-benzyl-2-thiopheneacetamide, D,L-α-acetamido-N-benzyl-2-furanacetamide, D,L-α-acetamido-N-benzyl-2-pyrroleacetamide, D,L-2-acetamido-N-benzyl-2-ethoxyacetamide and D,L-2-acetamido-N-benzyl-2-methoxyacetamide were evaluated using a horizontal screen assay (HS) as opposed to the Rotorod Test.
(Falling from the rotarod earlier than controls is read as motor impairment.)

For series [3], the system named is male Carworth Farms #1 mice. Kind of series: Rotorod Test (Tox), neurologic toxicity. Type of series: in vivo. The settings on record: Median Toxic Dose, comparison drugs.
Description: The effects of the compounds on forced and spontaneous motor activity were evaluated in mice using the Rotorod Test (Tox) or, in some cases, as indicated herein, a horizontal screen assay (HS). The animal was placed on a one-inch diameter knurled plastic rod rotating at 6 rpm after the administration of the drug. Normal mice can remain on a rod rotating at this speed indefinitely. Neurologic toxicity was defined as the failure of the animal to remain on the rod for one minute. The MES and so Met Tests were conducted on single animals while four mice were utilized for the Tox Test. The dose effect behavior of the compounds was evaluated using the above-described procedures by the administration of varying dose levels, treating normally eight mice at each dose. […] Mice were tested with varying doses of the anticonvulsant to define the limits of complete protection (or toxicity) and no protection (or no toxicity), as well as three points in between these limits. […] The Median Toxicity Dose (TD50) was the dose which elicited evidence of minimal neurological toxicity in 50% of the animals.
Setting [4] is: mice, 50 mA, 60 cycle, 0.2 sec via corneal electrodes, abolition of hind limb tonic extension.
Setting [5] is: mice, 85 mg/kg pentylenetetrazole subcutaneously, observed for 30 minutes.

As to `CCC1(c2ccccc2)C(=O)NC(=O)NC1=O` [phenobarbital, reference compound], the ED50 in series [1] worked out at 22 mg/kg; with pentylenetetrazole, 13 mg/kg.

Turning to `CC(=O)NC(C(=O)NCc1ccccc1)c1cccs1` (racemic) [D,L-α-Acetamido-N-benzyl-2-thiopheneacetamide], the 50% effective dose (ED50) in series [1] is 44.8 mg/kg. In series [2], the TD50 lay within 30 to 100 mg/kg.

Regarding `O=C1NC(=O)C(c2ccccc2)(c2ccccc2)N1` [phenytoin, reference compound], the 50% effective dose (ED50) in series [1] (setting [4]) was 10 mg/kg. For the same molecule, the “sc Met ED50” value in the series with pentylenetetrazole (setting [5]) is “not effective”.

For `CCOC(NC(C)=O)C(=O)NCc1ccccc1` (racemic) [D,L-2-Acetamido-N-benzyl-2-ethoxyacetamide], the median effective dose (ED50) in series [1] came to 62 mg/kg. Further, the TD50 in series [2] was more than 112 mg/kg.

`COC(NC(C)=O)C(=O)NCc1ccccc1` (racemic) [D,L-2-Acetamido-N-benzyl-2-methoxyacetamide]: the 50% effective dose (ED50) in series [1] stood at 98.3 mg/kg. In addition, in series [2], the TD50 is less than 300 mg/kg.

Regarding `NC(=O)NC(=O)Cc1ccccc1` [phenacemide], the ED50 worked out at 87 mg/kg in series [1] (setting [4]) and 116 mg/kg with pentylenetetrazole (setting [5]). In addition, in series [3], the “Tox TD50” value is 421 (337-549)* mg/kg.

As to `CC(=O)NC(C(=O)NCc1ccccc1)c1ccsc1` (racemic) [D,L-α-Acetamido-N-benzyl-3-thiopheneacetamide], the ED50 in series [1] was 87.8 mg/kg. Moreover, the TD50 in series [2] was more than 100 mg/kg.

Take `CCC1(c2ccccc2)NC(=O)N(C)C1=O` (stereo not shown) [mephenytoin]: the ED50 was found to be 61 mg/kg in series [1] (setting [4]) and 31 mg/kg in the series with pentylenetetrazole (setting [5]). Moreover, the “Tox TD50” value in series [3] is given as 154 mg/kg.

Consider `CC(=O)NC(C(=O)NCc1ccccc1)c1ccc[nH]1` (racemic) [D,L-α-Acetamido-N-benzyl-2-pyrroleacetamide], for which the ED50 in series [1] worked out at 16.1 mg/kg. Moreover, the TD50 in series [2] is less than 100 mg/kg.

Consider `CC(=O)NC(C(=O)NCc1ccccc1)c1ccco1` (racemic) [D,L-α-Acetamido-N-benzyl-2-furanacetamide], for which the median effective dose (ED50) in series [1] is 10.3 mg/kg. Further, in series [2], the TD50 was 40 mg/kg.
